{"source": "patent US20050282745A1", "about": "“Non-mammalian GnRH analogs and uses thereof in regulation of fertility and pregnancy” (priority 2001, published 2005)", "key": {"[1]": {"tested_on": "human term placental explants", "assay": "Static explant culture, release of hCG, progesterone, PGE2", "type": "cell-based", "from_the_text": "The biological activity of the newly synthesized non-mammalian GnRH analogs was studied using a static implant culture system. This system allows for inexpensive extended activity studies. Mammalian GnRH action on the human placenta release of hCG, progesterone and prostaglandins were defined using this system. Replicate cultures were studied, thus allowing for comparison of different doses of each non-mammalian GnRH analog to mammalian GnRH (SEQ ID NO: 5), as well as direct competition assays. […] These studies were repeated using different human placentas. Siler-Khodr T M, Khodr G S, Valenzuela G, Rhode J 1986 Gonadotropin-releasing hormone effects on placental hormones during gestation: II. Progesterone, estrone, estradiol and estriol. Biol Reprod 34:255-264; Siler-Khodr T M, Khodr G S, Valenzuela G, Rhode J 1986 Gonadotropin-releasing hormone effects on placental hormones during gestation: 1 Alpha-human chorionic gonadotropin, human chorionic gonadotropin and human chorionic somatomammotropin. Biol Reprod 34:245-254; Siler-Khodr T M, Khodr G S, Valenzuela G, Harper J, Rhode J 1986 GnRH effects on placental hormones during gestation. 111 Prostaglandin E, prostaglandin F, and 13, 14-dihydro-15-keto-prostaglandin F. Biol Reprod 35:312-319.\nIn these and additional studies, an explant culture system was used to determine the effect of mammalian GnRH (SEQ ID NO: 5), chicken II GnRH (SEQ ID NO: 6), or the D-Arg(6)-chicken II GnRH-aza-Gly(10)-amide analog (SEQ ID NO: 2) on the release of the hCG, progesterone, and prostaglandin E2. Human term placentas were dissected free of membranes, minced into fragments of 5 mm, rinsed in medium, and a total weight of ˜100 mg (20 explants) was placed on a sterile filter paper resting on an organ culture grid such that they touched the surface of the culture medium, but were not immersed in it. The medium contained penicillin, streptomycin, and fungizone at 100 U/mL, 100 μg/mL, and 2.5 μg/mL respectively with and without varying doses of GnRH isoforms or analogs was added to each Petri dish. Triplicate chambers for each media were made and incubated at 37 C in a humidified chamber with an atmosphere of 5% CO2 and 95% air. Spent media were collected and replaced after 2 hours, 24 hours, and 48 hour of culture and stored frozen at −20° C. until assayed for hormones. HCG, progesterone, and PGE2 were measured using specific double antibody procedures as described previously. The chicken II GnRH analog (SEQ ID NO: 2) was studied using four different human term placentas, and the native chicken II GnRH isoform was also studied using one human term placenta. Gibbons J M, Mitnick M, Chieffo V 1975 In vitro biosynthesis, of TSH- and LH-releasing factors by the human placenta. Am J Obstet Gynecol 121:127-131."}, "[2]": {"biological_target": "baboon endometrium (stroma and epithelium) receptor", "assay": "Baboon endometrium receptor binding", "settings": "read-out: receptor affinity", "from_the_text": "Due to the limited number of cells it was not possible to precisely define the affinity of this receptor."}, "[3]": {"tested_on": "baboon uterine tissue GnRH receptor", "assay": "Baboon uterine tissue GnRH receptor binding", "from_the_text": "These chicken II GnRH analogs (SEQ ID NO: 2) may have particular applicability for regulation of implantation and in uterine tissue conditions, such as endometriosis, abnormal uterine bleeding, and leiomyomas. Thus, high affinity receptors for chicken II GnRH analogs (SEQ ID NO: 2) have been defined in baboon ovary and uterus tissues."}, "baboon granulosa cells": {"tested_on": "baboon granulosa cells", "assay": "Baboon granulosa cell culture, progesterone release", "type": "cell-based", "from_the_text": "The biopotency of chicken II GnRH analogs (SEQ ID NO: 2) in the regulation of baboon ovarian function was studied. The effect of mammalian and chicken II GnRH analogs (SEQ ID NO: 2) on ovarian progesterone release was studied using granulosa cell cultures. The dose-related action of a stable analog of chicken II GnRH (SEQ ID NO: 2) on progesterone production was defined using baboon granulosa cell cultures. After a two hour basal study period, the medium was supplemented with either Buserilin (SEQ ID NO: 10) (10^−7) or a chicken II GnRH analog (SEQ ID NO: 2) (10^−9, 10^−8, 10^−7, 10^−6 M) leaving four control wells. […] This inhibition was sustained after 48 hours of treatment. […] In addition, the action of the analog on three different stromal and three different epithelial endometrial primary cell lines (after 3-5 passages) has been studied and PGE2 determined as indicated in FIG. 31."}, "rhesus monkey": {"tested_on": "rhesus monkey", "assay": "Contraceptive activity in mated rhesus monkeys, osmotic mini-pump", "type": "in vivo", "from_the_text": "In these studies we examined the effect of a stable analog of chicken II GnRH on ovarian steroidogenesis, implantation and maintainence of pregnancy in the rhesus monkey. We administered this chicken II GnRH analog (SEQ ID NO: 2) or saline via osmotic mini-pumps from Day 1-6, Day 6-11 or Day 11-17 to regularly cycling monkeys mated with fertile males around the time of ovulation. Circulating estradiol (E2) and progesterone (P) in the luteal phase was observed as well as cycle length in this and subsequent cycle. Implantation and pregnancy were confirmed by circulating CG and continued progesterone production. […] In animals treated on day 6-11 or days 11-17, no effect on luteinization or cycle length was noted; and two of five (40.0%), and one of three animals (33.3%), respectively, implanted with normal pregnancies resulting."}, "human sperm": {"tested_on": "human sperm", "assay": "Human sperm motility in vitro", "type": "cell-based", "procedure": "Normal human sperm ([…]) were obtained with seminal plasma and the motility of the sperm was assessed microscopically. Both the fraction of motile sperm and the forward sperm motion were assessed. These parameters were measured just prior to a 1:5 dilution with phosphate buffered saline containing 0 to 200 nM chicken II GnRH analog (SEQ ID NO: 2). The motility and motion of the sperm were assessed at 2, 30, 60, 90, 120 and 180 minutes after incubation at 37 C. […] By 180 minutes the motility of the control had fallen to that of all the treated sperm."}}, "note": "pKd: −log10 of the molar value. Non-standard residues stand in square brackets, D forms with d. Residues, ends and D or L forms follow the SMILES beside them. pGlu = O=C1CC[C@@H](C(=O)O)N1; azaGly = NNC(=O)O", "data": [{"smiles": "N=C(N)NCCC[C@@H](NC(=O)[C@H](Cc1c[nH]cn1)NC(=O)[C@H](CO)NC(=O)[C@H](Cc1c[nH]c2ccccc12)NC(=O)[C@H](Cc1c[nH]cn1)NC(=O)[C@@H]1CCC(=O)N1)C(=O)N[C@@H](Cc1c[nH]c2ccccc12)C(=O)N[C@@H](Cc1ccc(O)cc1)C(=O)N1CCC[C@H]1C(=O)NNC(N)=O", "note": "[D-Arg(6)-chicken II GnRH-aza-Gly(10)-amide] ([pGlu]HWSH[dR]WYP[azaGly]-NH2)", "values": [{"measurement": "progesterone release at higher concentrations", "setting": "[1]", "value": "also inhibited"}, {"measurement": "effect on hCG at higher concentrations", "setting": "[1]; 1-9 μM", "value": "inhibition of hCG"}, {"measurement": "PGE2 release", "setting": "[1]; 2 and 24 hours", "value": "not significantly changed"}, {"measurement": "hCG release after 2, 24 and 48 hours of treatment", "setting": "[1]; P<0.05", "value": "significant dose-related inhibition"}, {"measurement": "stimulation of hCG", "setting": "[1]; first two hours, lowest concentration 250 nM", "value": "as much as a three fold stimulation"}, {"measurement": "hCG in presence of exogenous GnRH", "setting": "[1]; three placentas, later studies", "value": "inhibition of hCG"}, {"measurement": "pKd", "setting": "[2]", "value": "~7.22"}, {"measurement": "binding affinity, in words", "setting": "[3]", "value": "high binding affinity"}, {"measurement": "progesterone release, of untreated controls", "setting": "baboon granulosa cells; 10^−8M, within 24 hours", "value": 31, "unit": "%"}, {"measurement": "effect on progesterone release, in words", "setting": "baboon granulosa cells; chicken II analog 10^−9 to 10^−6 M, Buserelin 10^−7", "value": "dose-related inhibition of progesterone release"}, {"measurement": "concentration of maximal inhibition of progesterone release", "setting": "baboon granulosa cells; within 24 hours", "value": "10^−8 M"}, {"measurement": "pregnancies", "setting": "rhesus monkey; treated Day 1-6", "value": "no pregnancies resulted"}, {"measurement": "effect on progesterone production or cycle length", "setting": "rhesus monkey; treated day 1-6", "value": "no significant effect"}, {"measurement": "animals implanted with normal pregnancies", "setting": "rhesus monkey; treated day 6-11, two of five", "value": 40.0, "unit": "%"}, {"measurement": "effect on luteinization or cycle length", "setting": "rhesus monkey; treated day 6-11 or days 11-17", "value": "no effect"}, {"measurement": "animals implanted with normal pregnancies", "setting": "rhesus monkey; treated days 11-17, one of three", "value": 33.3, "unit": "%"}, {"measurement": "forward motion of remaining motile sperm", "setting": "human sperm", "value": "maintained a high grade"}, {"measurement": "time until inhibition of motility", "setting": "human sperm; 2 nM", "value": 30, "unit": "min"}, {"measurement": "sperm motility", "setting": "human sperm; 20 to 200 nM", "value": "initially inhibited"}]}]}
